Assays:
[1] = test system: transient middle cerebral artery occlusion (tMCAO) rat model of stroke; test: Body swing test, tMCAO rat model of stroke; format: in vivo; settings: 50 μg/kg SC once per day, tMCAO rats
Procedure: (§1) For the purposes of this Example, Transient middle cerebral artery occlusion (tMCAO) procedure Day is defined as “Day 1” in this study. On the day of surgery anesthesia were induced with 4% isoflurane in a mixture of 70% N2O and 30% O2 and maintained with 1.5-2% isoflurane.
(§2) The tMCAO procedures were performed according to the method described R. Schmid-Elsaesser et al., A critical reevaluation of the intraluminal thread model of focal cerebral ischemia: evidence of inadvertent premature reperfusion and subarachnoid hemorrhage in rats by laser-doppler flowmetry, Stroke, 1998, 29(10): 2162-2170. Briefly, the right CCA (Common Carotid Artery) was exposed through a midline neck incision and carefully dissected free from surrounding nerves and fascia—from its bifurcation to the base of the skull. The occipital artery branches of the ECA (External Carotid Artery) were then isolated, and these branches were dissected and coagulated. […]
The rat was held approximately one inch from the base of its tail. […] A swing was recorded whenever the rat moved its head out of the vertical axis to either side. Before attempting another swing, the rat had to return to the vertical position for the next swing to be counted. Twenty (20) total swings were counted. […] Body swing scores are expressed as a percentage of […] over total swings.

[2] = test system: transient middle cerebral artery occlusion (tMCAO) rat model of stroke; test: Modified Neurological Rating Scale (mNRS), tMCAO rat model of stroke; format: in vivo; settings: 50 μg/kg SC once per day, tMCAO rats
Procedure: as §1
as §2, with “coagulated. The ECA was dissected further distally and coagulated along with the terminal lingual and maxillary artery branches, which was then divided. The ICA (Internal Carotid Artery) was isolated and carefully separated from the adjacent vagus nerve, and the pterygopalatine artery was ligated close to its origin with a 5-0 nylon suture (SMI, Belgium).” for “coagulated.”

HUVEC cells = test: cAMP production in HUVEC (cAMP enzyme immunoassay of cell lysate); format: cell-based, human; settings: 15 minutes stimulation
Procedure: Prior to stimulation with Ala^1-Arg^2-Val^3-Ser^4-Ile^5-His^6-Cys^7 (SEQ ID NO: 18), HUVEC cells were washed twice with PBS and then incubated for 1 hour in serum-free medium. In this Example, in order to generate a dose response curve, the peptide concentration ranged from 1×10^−13-1×10^−6 M. After 15 minutes stimulation, the medium containing peptide was removed and the cells were lysed (0.1M HCl, 0.1% Triton X-100). The clear lysate was collected, and 25 μl were used for determining the protein concentration (Pierce BCA Protein Assay Kit, Thermo Scientific, Rockford, USA) and the remaining fraction stored at −80° C. for later analysis.
cAMP concentration in cell lysates was determined using cAMP Enzyme Immunoassay Kit, Direct from Sigma-Aldrich (St. Louis, Mo., USA). Briefly, wells of 96-well plate (Goat Anti-Rabbit IgG pre-coated) were neutralized with 50 μl of Neutralizing Reagent. Next, 100 μl of acetylated cyclic AMP standard or cell lysate was added, followed by 50 μl of blue cAMP-Alkaline Phosphatase Conjugate and 50 μl of yellow EIA Rabbit Anti-cAMP antibody. The plate was then incubated on a shaker (˜500 rpm) for two hours at room temperature. […] The enzymatic reaction was stopped by adding 50 μl of Stop Solution, and the absorbance at 405 nm was measured immediately. The cAMP concentration was determined from non-linear standard curve using GraphPad Prism 5.0 software. […]

[3] = test system: transient middle cerebral artery occlusion (tMCAO) rat model of stroke; test: Stepping test, tMCAO rat model of stroke; format: in vivo; settings: 50 μg/kg SC once per day, tMCAO rats
Procedure: as §1, §2
Animals were tested for forelimb akinesia in a stepping test. The animal was held with its hind limbs fixed with one hand and the forelimb not monitored with the other, while the unrestrained fore-paw touches a table. The number of adjusting steps were counted while the animal was moved sideways along the table surface (85 cm in approximately five seconds), in the forehand & backhand direction for both forelimbs.

[4] = test system: transient middle cerebral artery occlusion (tMCAO) rat model of stroke; test: Forelimb placement test, tMCAO rat model of stroke; format: in vivo; settings: 50 μg/kg SC once per day; for forelimb placement: first day of statistically significant improvement vs vehicle: tMCAO rats; for forelimb placement score improvement vs vehicle control / forelimb placement score improvement vs vehicle control, percent: by day 50
Procedure: as §1
(§3) The tMCAO procedures were performed according to the method described R. Schmid-Elsaesser et al., A critical reevaluation of the intraluminal thread model of focal cerebral ischemia: evidence of inadvertent premature reperfusion and subarachnoid hemorrhage in rats by laser-doppler flowmetry, Stroke, 1998, 29(10): 2162-2170. Briefly, the right CCA (Common Carotid Artery) was exposed through a midline neck incision and carefully dissected free from surrounding nerves and fascia—from its bifurcation to the base of the skull. The occipital artery branches of the ECA (External Carotid Artery) were then isolated, and these branches were dissected and coagulated. The ECA was dissected further distally and coagulated along with the terminal lingual and maxillary artery branches, which was then divided. The ICA (Internal Carotid Artery) was isolated and carefully separated from the adjacent vagus nerve, and the pterygopalatine artery was ligated close to its origin with a 5-0 nylon suture (SMI, Belgium). Next, a 4-0 silk suture was tied loosely around the mobilized ECA stump, and a 4 cm length of 4-0 monofilament nylon suture (the tip of the suture was blunted by using a flame, and the suture was coated with polylysine, prior to insertion) was inserted through the proximal ECA into the ICA and thence into the circle of Willis, effectively occluding the MCA. The surgical wound was closed and the animals were returned to their cages to recover from anesthesia. One hour and a half after occlusion rats were re-anesthetized, the monofilament was withdrawn to allow reperfusion, the surgical wound was closed and rats were returned to their cages.
(§4) Animals were subjected to a modified Modified Neurological Rating Scale (mNRS) at 24 hours post reperfusion. Only animals with an overall score of ≧10 were included in this study. Animals were allocated into the test groups, according to the mNRS results on day 2, in order to have similar distribution of rats performance between groups. Starting on day 2, 24 hours post-surgery, each animal was administered one of 50 μg/kg of either TXA301 (SEQ ID NO: 20) or TXA302 (SEQ ID NO: 18) or […]; via subcutaneous (SC) administration.
The limb placing tests were divided into both forelimb and hindlimb tests. For the forelimb-placing test, the examiner held the rat close to a tabletop and scored the rat's ability to place the forelimb on the tabletop in response to whisker, visual, tactile, or proprioceptive stimulation. Similarly, for the hindlimb placing test, the examiner assessed the rat's ability to place the hindlimb on the tabletop in response to tactile and proprioceptive stimulation. Separate sub-scores were obtained for each mode of sensory input and added to give total scores (for the forelimb placing test: 0=normal, 12=maximally impaired; for the hindlimb placing test: 0=normal; 6=maximally impaired). Scores were given in half-point increments as follows: whisker placing (0-2), visual placing-forward (0-2), -sideways (0-2); tactile placing-dorsal (0-2), -lateral (0-2); proprioceptive placing (0-2); for a total of 0-12.

[5] = test system: transient middle cerebral artery occlusion (tMCAO) rat model of stroke; test: Cerebral blood flow and vessel diameter (laser Doppler), tMCAO rat model of stroke; format: in vivo; settings: day 50; 50 μg/kg SC
Procedure: as §1, §3, §4
Evaluation of blood flow in the cerebral cortex and vessel constriction was carried out using a Flow-R Laser Doppler system, in which intracranial blood flow and vessels diameter (constriction/dilation) was monitored. The Doppler procedure was carried out on Day 50 after the stroke and was performed while the animals were under isoflurane anesthesia.

[6] = test system: human umbilical vein endothelial cells (HUVEC); test: BDNF production in HUVEC (BDNF Emax immunoassay of cell medium); format: cell-based; settings: for lowest dose stimulating significant BDNF expression: serum-free medium, 24 hours stimulation
Procedure: (§5) Prior to stimulation, cells were washed twice with sterile PBS and then provided with the respective serum free cell medium. Cells were incubated in the serum-free medium for one hour and afterwards stimulated for 24 hours. For the dose response measurement the peptides were used in a range from 10^−14M to 10^−6M. For all other experiments, a 10^−7M concentration of the peptides was used, whereas isoproterenol and forskolin were used in a 10^−6M concentration. To maintain the concentration of the substances over a period of 24 hours they were added again into the medium after 12 hours. After stimulation, the concentration of BDNF was determined in the cell medium. The samples were either used directly or stored at −80° C.
(§6) For the determination of the concentration of BDNF the BDNF Emax® immunoassay system from Promega was used. At first, 96-well plates were coated with anti-BDNF overnight at 4° C. The next day, the plates were washed with TBST and incubated with blocking buffer for one hour at room temperature. Afterwards, the plate was washed again with TBST, and 100 μl of sample were applied per well. The plate was incubated on a shaker (˜400 rpm) for two hours at room temperature and later on washed five times with TBST. To each well 100 μl pAb anti-human BDNF were added, and the plate again incubated under continuous shaking for two hours at room temperature. Thereafter, the plate was washed five times with TBST, each well applied with 100 μl anti-IgY-HRP conjugate, and incubated at room temperature with shaking for one hour. Then, the plate was washed five times with TBST and incubated for 10 min at room temperature on a shaker with TMB One Solution. The reaction was stopped with 1 M hydrochloric acid and the absorbance was measured immediately at 450 nm. The BDNF concentration was determined from a standard curve.

[7] = test system: human dermal microvascual endothelial cells (HDMEC); test: BDNF production in HDMEC (BDNF Emax immunoassay of cell medium); format: cell-based; settings: for lowest dose stimulating BDNF expression: serum-free medium, 24 hours stimulation
Procedure: as §5, §6

Row | Substance | body swing test: first day of statistically significant improvement vs vehicle [1] | mNRS: first day of significant increase in performance vs vehicle [2] | dose of observed maximum cAMP (HUVEC cells) | lowest dose giving significant increase in cAMP (HUVEC cells) | stepping test: first day of statistically significant effect vs vehicle [3] | forelimb placement: first day of statistically significant improvement vs vehicle [4] | forelimb placement score improvement vs vehicle control [4] | forelimb placement score improvement vs vehicle control, percent [4] | blood flow compared to vehicle controls and to rats receiving TXA301 [5] | blood flow ratio vs vehicle [5] | vessel diameter compared to vehicle controls and to rats receiving TXA301 [5] | vessel diameter vs vehicle [5] | lowest dose stimulating significant BDNF expression [6] | lowest dose stimulating BDNF expression [7] | BDNF expression at doses 100,000 times higher than 1×10^−11 ([6]; compared with 1×10^−11 M) | BDNF expression at doses 100,000 times higher than 1×10^−11 ([7]; compared with 1×10^−11 M)
1 | Ala^1-Arg^2-Val^3-Ser^4-Ile^5-His^6-Cys^7 (ARVSIHC) [TXA302] | 15 days | 15 days | approximately 1×10^−9 M | 10 pM | 15 days | 15 days | more than 7 points | ~78% | markedly improved blood flow | statistically significant improvement | increased vessel diameter | statistically significant improvement |  |  |  | 
2 | Asp^1-Arg^2-Val^3-Tyr^4-Ile^5-His^6-Pro^7 (DRVYIHP) [Ang (1-7), naturally-occurring Ang-(1-7), reference compound] |  |  |  |  |  |  |  |  |  |  |  |  | 10 nM | 10 nM |  | 
3 | TXA301: angiotensin (1-7) peptide coded TXA301 (SEQ ID NO: 20); sequence not printed in the text (DRVSIHC) | 22 days | 15 days |  |  | 15 days | 22 days | 4 points | ~44% |  | statistically significant improvement |  | statistically significant improvement | 0.01 nM | 0.01 nM | statistically similar levels of expression | statistically similar levels of expression
